Measured values as given in patent publication US20080160509A1, “ASSAYS FOR PREDICTING AND ASSESSING PREDISPOSITION TO MALE PATTERN BALDNESS” (priority 2006, published 2008).

How the values were obtained:
[1] = molecular target: sex hormone binding globulin (SHBG) (Homo sapiens, UniProt P04278); conditions: ratio versus testosterone; cited from earlier work
[2] = tested on: bald subject (Norwood Level VII); test: Antiviral agent and hair growth study in a bald subject; type: in vivo, human
From the text: A bald subject (Norwood Level VII) who routinely gets fever blisters volunteered to take place in a study to see if the topical application and oral consumption of antiviral drugs would result in hair growth. The individual lacks any hairs on the top of their head. The participant was instructed to cleanse their scalp twice daily with a liquid cleanser using a sonic skincare brush (Clarisonic®). After cleansing topical acyclovir (5%) was applied. The subject is not a candidate for any of the FDA-approved hair loss medications because of a lack of vellus hairs.
After approximately four weeks of treatment, the participant was given valacyclovir (500 mg) instead of oral acyclovir because of potential acyclovir resistance. In addition, the concentration of topical acyclovir was increased to 10%.
The fact that vellus hair formation occurred and converted to pigmented hairs is highly unexpected in a participant with Norwood Level VII baldness.

Sequence of sex hormone binding globulin (SHBG) (P04278 30-402): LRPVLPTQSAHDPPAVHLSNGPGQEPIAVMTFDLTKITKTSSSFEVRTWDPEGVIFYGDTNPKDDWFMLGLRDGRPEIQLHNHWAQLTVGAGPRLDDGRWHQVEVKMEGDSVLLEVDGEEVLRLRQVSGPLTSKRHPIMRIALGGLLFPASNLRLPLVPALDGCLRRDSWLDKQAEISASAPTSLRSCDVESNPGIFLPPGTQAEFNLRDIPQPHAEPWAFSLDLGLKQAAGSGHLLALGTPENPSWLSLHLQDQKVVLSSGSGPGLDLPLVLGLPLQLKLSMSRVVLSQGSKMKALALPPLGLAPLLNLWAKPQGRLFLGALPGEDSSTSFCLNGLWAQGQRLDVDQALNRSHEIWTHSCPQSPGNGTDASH

C[C@]12CCC(=O)C[C@@H]1CC[C@@H]1[C@@H]2CC[C@]2(C)[C@@H](O)CC[C@@H]12 [DHT, 5α-dihydrotestosterone]
binding affinity for SHBG relative to testosterone [1]: at least three times

Nc1nc2c(ncn2COCCO)c(=O)[nH]1 [acyclovir]
conversion of vellus hairs to pigmented hairs ([2]; after 16 weeks of treatment, topical acyclovir 10% plus oral valacyclovir (500 mg)): some of the vellus hairs converted to pigmented hairs | hair lengthening ([2]; after 20 weeks, topical acyclovir 10% plus oral valacyclovir (500 mg)): pigmented and unpigmented vellus hairs continued to lengthen | hair growth on scalp ([2]; at 12 weeks, topical acyclovir increased to 10% plus oral valacyclovir (500 mg) from about week 4): long, unpigmented vellus hairs were visible on the scalp | oral lesions ([2]; human, in vivo): marked increase in oral lesions | hair growth on scalp noted by participant ([2]; topical acyclovir (5%) after twice daily scalp cleansing, after two weeks of treatment, one person, Norwood Level VII): small vellus hairs
